Measured values taken from PubChem BioAssay AID248 (DTP/NCI, 2004).
Values joined by “and” are separate entries in the source; they are usually repeats but may differ in a detail not shown here. Identical values can stand only once. Inconclusive results and toxic doses are left out. Cut-off read from the data, not from the text of the source: active = T/C of 150% or more; inactive = T/C below 125%.

Tested on: L1210 leukemia ip in BDF1 mice, survival T/C
Assay: NCI In Vivo Anticancer Drug Screen. Data for tumor model L1210 Leukemia (intraperitoneal) in B6D2F1 (BDF1) mice
Conditions: endpoint: mean survival time, higher = longer survival
In short: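 Value reflects the ratio of survival in compound-treated mice to survival in vehicle-treated controls, with both groups carrying the same transplanted tumor.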

[1] = dose: 100.0 mg/kg/injection, schedule: Q04DX003 (ip), vehicle: saline with Tween-80
[2] = dose: 200.0 mg/kg/injection, schedule: Q04DX003 (ip), vehicle: saline with Tween-80
[3] = dose: 100.0 mg/kg/injection, schedule: Q04DX003 (ip), vehicle: Klucel (hydroxypropylcellulose) (HPC)
[4] = dose: 200.0 mg/kg/injection, schedule: Q04DX003 (ip), vehicle: Klucel (hydroxypropylcellulose) (HPC)
[5] = dose: 400.0 mg/kg/injection, schedule: Q04DX003 (ip), vehicle: Klucel (hydroxypropylcellulose) (HPC)
[6] = dose: 100.0 mg/kg/injection, schedule: Q04DX003 (ip), vehicle: saline
[7] = dose: 200.0 mg/kg/injection, schedule: Q04DX003 (ip), vehicle: saline
[8] = dose: 400.0 mg/kg/injection, schedule: Q04DX003 (ip), vehicle: saline
[9] = dose: 100.0 mg/kg/injection, schedule: Q01DX001 (ip), vehicle: saline
[10] = dose: 200.0 mg/kg/injection, schedule: Q01DX001 (ip), vehicle: saline
[11] = dose: 400.0 mg/kg/injection, schedule: Q01DX001 (ip), vehicle: saline
[12] = dose: 400.0 mg/kg/injection, schedule: Q04DX003 (ip), vehicle: saline with Tween-80
[13] = dose: 25.0 mg/kg/injection, schedule: Q01DX009 (ip), vehicle: saline with Tween-80
[14] = dose: 50.0 mg/kg/injection, schedule: Q01DX009 (ip), vehicle: saline with Tween-80
[15] = dose: 100.0 mg/kg/injection, schedule: Q01DX009 (ip), vehicle: saline with Tween-80

Measured: T/C

CCOC(=O)C12CCC(C1=O)C(C)(O)CC2 (stereo not given)
inactive: [1] 108 % of control | [2] 97 % of control

CC(C)c1ccc(C(=O)C2CC2)cc1
inactive: dose: 25.0 mg/kg/injection, schedule: Q01DX009 (ip), vehicle: Klucel (hydroxypropylcellulose) (HPC) 93 % of control | dose: 50.0 mg/kg/injection, schedule: Q01DX009 (ip), vehicle: Klucel (hydroxypropylcellulose) (HPC) 101 % of control | dose: 100.0 mg/kg/injection, schedule: Q01DX009 (ip), vehicle: Klucel (hydroxypropylcellulose) (HPC) 93 % of control and 91 % of control | [3] 96 % of control | [4] 96 % of control | [5] 94 % of control

Nc1cc(Cl)ccc1[N+](=O)[O-]
inactive: [6] 103 % of control | [7] 95 % of control | [8] 96 % of control

OCCCN=Cc1ccccc1O.[Co]
inactive: dose: 5.0 mg/kg/injection, schedule: Q01DX001 (ip), vehicle: saline 100 % of control | dose: 10.0 mg/kg/injection, schedule: Q01DX001 (ip), vehicle: saline 94 % of control | dose: 20.0 mg/kg/injection, schedule: Q01DX001 (ip), vehicle: saline 100 % of control | dose: 40.0 mg/kg/injection, schedule: Q01DX001 (ip), vehicle: saline 102 % of control | dose: 80.0 mg/kg/injection, schedule: Q01DX001 (ip), vehicle: saline 105 % of control

O=C(CCc1ccccc1)c1ccccc1
inactive: dose: 100.0 mg/kg/injection, schedule: Q04DX002 (ip), vehicle: saline with Tween-80 97 % of control | dose: 200.0 mg/kg/injection, schedule: Q04DX002 (ip), vehicle: saline with Tween-80 97 % of control | dose: 400.0 mg/kg/injection, schedule: Q04DX002 (ip), vehicle: saline with Tween-80 90 % of control

CC1(N)COP(=O)(NCc2ccccc2)OC1 (stereo not given)
inactive: [9] 95 % of control | [10] 103 % of control | [11] 103 % of control

CN=C(N)NC
inactive: dose: 50.0 mg/kg/injection, schedule: Q01DX009 (ip), vehicle: saline 94 % of control | dose: 100.0 mg/kg/injection, schedule: Q01DX009 (ip), vehicle: saline 100 % of control | [1] 98 % of control | dose: 200.0 mg/kg/injection, schedule: Q01DX009 (ip), vehicle: saline 91 % of control | [2] 97 % of control

N=N/C(=C\c1c(O)[nH]c2ccccc12)c1ccccc1
inactive: dose: 100.0 mg/kg/injection, schedule: Q04DX002 (ip), vehicle: gum acacia 92 % of control | dose: 200.0 mg/kg/injection, schedule: Q04DX002 (ip), vehicle: gum acacia 89 % of control | dose: 400.0 mg/kg/injection, schedule: Q04DX002 (ip), vehicle: gum acacia 100 % of control

CC(C)CC(O)CC(C)C
inactive: [1] 95 % of control | dose: 118.0 mg/kg/injection, schedule: Q01DX009 (ip), vehicle: saline with Tween-80 108 % of control | [2] 93 % of control | dose: 250.0 mg/kg/injection, schedule: Q01DX009 (ip), vehicle: saline with Tween-80 102 % of control | [12] 90 % of control

CSc1ccc(NC(N)=O)cc1
inactive: dose: 100.0 mg/kg/injection, schedule: Q04DX002 (ip), vehicle: Klucel (hydroxypropylcellulose) (HPC) 103 % of control | dose: 200.0 mg/kg/injection, schedule: Q04DX002 (ip), vehicle: Klucel (hydroxypropylcellulose) (HPC) 120 % of control | dose: 400.0 mg/kg/injection, schedule: Q04DX002 (ip), vehicle: Klucel (hydroxypropylcellulose) (HPC) 95 % of control

CN(C)Cc1cc(C(C)(C)C)c(O)c(C(C)(C)C)c1
inactive: [13] 112 % of control | [14] 98 % of control | [15] 94 % of control | [1] 95 % of control

COc1ccc(C(=O)CC(C(=O)O)c2ccc3c(c2)OCO3)cc1OC (stereo not given)
inactive: [15] 96 % of control | dose: 200.0 mg/kg/injection, schedule: Q01DX009 (ip), vehicle: saline with Tween-80 98 % of control | dose: 400.0 mg/kg/injection, schedule: Q01DX009 (ip), vehicle: saline with Tween-80 98 % of control

CCCNC(=O)CS(=O)(=O)c1ccc(N)cc1
inactive: [1] 97 % of control | [2] 95 % of control | [12] 97 % of control

C/C(=C/c1c(C)cc(C)c(NC(=O)c2ccc([N+](=O)[O-])cc2)c1C)CBr
inactive: dose: 100.0 mg/kg/injection, schedule: Q01DX001 (ip), vehicle: Klucel (hydroxypropylcellulose) (HPC) 93 % of control | [3] 97 % of control | dose: 200.0 mg/kg/injection, schedule: Q01DX001 (ip), vehicle: Klucel (hydroxypropylcellulose) (HPC) 102 % of control | [4] 92 % of control | dose: 400.0 mg/kg/injection, schedule: Q01DX001 (ip), vehicle: Klucel (hydroxypropylcellulose) (HPC) 96 % of control | [5] 92 % of control

O=c1[nH]nnc2nn(C3OC(CO)C(O)C3O)cc12 (stereo not given)
inactive: dose: 100.0 mg/kg/injection, schedule: Q01DX005 (ip), vehicle: saline 103 % of control | dose: 200.0 mg/kg/injection, schedule: Q01DX005 (ip), vehicle: saline 109 % of control

O=C(O)c1ccc(C(=O)O)c([N+](=O)[O-])c1
inactive: [6] 102 % of control | [7] 100 % of control | [8] 96 % of control

Cc1cc(OCCCC(=O)O)ccc1Cl
inactive: dose: 50.0 mg/kg/injection, schedule: Q01DX001 (ip), vehicle: saline 104 % of control | [9] 104 % of control | [10] 102 % of control | [11] 96 % of control

O=C(Nc1nc2ccccc2s1)c1ccc(C(=O)Nc2nc3ccccc3s2)cc1
inactive: dose: 100.0 mg/kg/injection, schedule: Q01DX001 (ip), vehicle: other 93 % of control | dose: 200.0 mg/kg/injection, schedule: Q01DX001 (ip), vehicle: other 90 % of control | dose: 400.0 mg/kg/injection, schedule: Q01DX001 (ip), vehicle: other 91 % of control

Clc1ccc(N=Cc2ccc(C=Nc3ccc(Cl)c(Cl)c3)cc2)cc1Cl
inactive: [3] 97 % of control | dose: 200.0 mg/kg/injection, schedule: Q01DX009 (ip), vehicle: saline sonified 89 % of control | [4] 89 % of control | [5] 96 % of control

O=C(OC1COC(O)C(OC(=O)c2ccccc2)C1OC(=O)c1ccccc1)c1ccccc1 (stereo not given)
inactive: dose: 100.0 mg/kg/injection, schedule: Q01DX001 (ip), vehicle: saline with Tween-80 101 % of control | dose: 200.0 mg/kg/injection, schedule: Q01DX001 (ip), vehicle: saline with Tween-80 93 % of control

CCOC=NC1=C(Cl)C(=O)C(N=COCC)=C(Cl)C1=O
inactive: [3] 92 % of control | [4] 94 % of control

CC(=O)N(C)c1ccc(NC(=O)Nc2cccc(F)c2)cc1
inactive: dose: 12.5 mg/kg/injection, schedule: Q01DX009 (ip), vehicle: saline with Tween-80 104 % of control | [13] 105 % of control | [14] 96 % of control

NCCc1cc(O)c(O)c(S(=O)(=O)c2ccccc2)c1
inactive: dose: 87.5 mg/kg/injection, schedule: Q01DX009 (ip), vehicle: saline 96 % of control | dose: 175.0 mg/kg/injection, schedule: Q01DX009 (ip), vehicle: saline 94 % of control | dose: 350.0 mg/kg/injection, schedule: Q01DX009 (ip), vehicle: saline 115 % of control
